Laboratory results as given in PubChem BioAssay (NCI).
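1) Cells in 96-well plates. 2) Compound, 48 h, 5 concentrations. 3) Linear interpolation between surrounding doses. 4) Unreached endpoint = highest concentration. At the GI50, growth is halved. TGI marks complete inhibition of growth.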

Tests used:
Assay in all cases: inhibition of tumour cell growth, NCI panel, 48 h
[1] = test system: OVCAR-4 ovarian
[2] = test system: HOP-92 NSCLC
[3] = test system: OVCAR-3 ovarian
[4] = test system: SF-268 CNS
[5] = test system: SK-MEL-2 melanoma
[6] = test system: PC-3 prostate
[7] = test system: SW-620 colon
[8] = test system: A549 NSCLC
[9] = test system: SK-MEL-5 melanoma
[10] = test system: NCI/ADR-RES ovarian
[11] = test system: HT29 colon
[12] = test system: MDA-MB-435
[13] = test system: OVCAR-5 ovarian
[14] = test system: T-47D breast
[15] = test system: EKVX NSCLC
[16] = test system: RPMI-8226 leukemia
[17] = test system: SF-295 CNS
[18] = test system: SNB-19 CNS
[19] = test system: LOX IMVI melanoma
[20] = test system: NCI-H522 lung
[21] = test system: HS 578T breast
[22] = test system: OVCAR-8 ovarian
[23] = test system: SK-MEL-28 melanoma
[24] = test system: MALME-3M melanoma
[25] = test system: A498 renal
[26] = test system: NCI-H226 lung
[27] = test system: HCT-116 colon
[28] = test system: COLO 205 colon
[29] = test system: MOLT-4 leukemia
[30] = test system: UO-31 renal
[31] = test system: ACHN renal
[32] = test system: MDA-MB-231 breast
[33] = test system: HCC-2998 colon
[34] = test system: U251 CNS
[35] = test system: NCI-H460 lung
[36] = test system: BT-549 breast
[37] = test system: IGROV1 ovarian
[38] = test system: MCF7 breast
[39] = test system: HOP-62 NSCLC
[40] = test system: K-562 leukemia
[41] = test system: UACC-62 melanoma
[42] = test system: CAKI-1 renal
[43] = test system: KM12 colon
[44] = test system: HCT-15 colon
[45] = test system: SF-539 CNS
[46] = test system: UACC-257 melanoma
[47] = test system: SR leukemia
[48] = test system: CCRF-CEM leukemia
[49] = test system: SN12C renal
[50] = test system: TK-10 renal
[51] = test system: SNB-75 CNS
[52] = test system: 786-0 renal
[53] = test system: DU-145 prostate
[54] = test system: M14 melanoma
[55] = test system: SK-OV-3 ovarian
[56] = test system: HL-60(TB) leukemia
[57] = test system: RXF 393 renal

CN(C)S(=O)(=O)c1oc(-c2ccccc2)nc1C#N
GI50 [1]: 14.8 µM | TGI [1]: 32 µM | GI50 [2]: 5.76 µM | TGI [2]: 20.1 µM | GI50 [3]: 12.9 µM | TGI [3]: 27.8 µM | GI50 [4]: 19.6 µM | TGI [4]: 49.8 µM | GI50 [5]: 13.8 µM | TGI [5]: 28.6 µM | GI50 [6]: 15.3 µM | TGI [6]: 32.2 µM | GI50 [7]: 9.58 µM | TGI [7]: 26.2 µM | GI50 [8]: 73.9 µM | TGI [8]: > 100 µM | GI50 [9]: 18.1 µM | TGI [9]: 34.1 µM | GI50 [10]: 29.9 µM | TGI [10]: > 100 µM | GI50 [11]: 16.6 µM | TGI [11]: 36.1 µM | GI50 [12]: 18.3 µM | TGI [12]: 44.9 µM | GI50 [13]: 18.1 µM | TGI [13]: 36.7 µM | GI50 [14]: 16.1 µM | TGI [14]: 38.5 µM | GI50 [15]: 21.5 µM | TGI [15]: 52.4 µM | GI50 [16]: 18.9 µM | TGI [16]: 43.8 µM | GI50 [17]: > 100 µM | TGI [17]: > 100 µM | GI50 [18]: 50 µM | TGI [18]: > 100 µM | GI50 [19]: 1.26 µM | TGI [19]: 11.6 µM | GI50 [20]: 2.81 µM | TGI [20]: 11 µM | GI50 [21]: 23.4 µM | TGI [21]: 98.4 µM | GI50 [22]: 19 µM | TGI [22]: 39.6 µM | GI50 [23]: 16.3 µM | TGI [23]: 31.1 µM | GI50 [24]: 13.4 µM | TGI [24]: 30.1 µM | GI50 [25]: > 100 µM | TGI [25]: > 100 µM | GI50 [26]: 10 µM | TGI [26]: 27.9 µM | GI50 [27]: 12.6 µM | TGI [27]: 25.6 µM | GI50 [28]: 11.5 µM | TGI [28]: 24.7 µM | GI50 [29]: 2.82 µM | TGI [29]: 11.5 µM | GI50 [30]: 14.7 µM | TGI [30]: 28.2 µM | GI50 [31]: 14.9 µM | TGI [31]: 28.6 µM | GI50 [32]: 23.5 µM | TGI [32]: 59.2 µM | GI50 [33]: 16.9 µM | TGI [33]: 31.6 µM | GI50 [34]: 17.1 µM | TGI [34]: 32.6 µM | GI50 [35]: 22.3 µM | TGI [35]: 58.9 µM | GI50 [36]: 12 µM | TGI [36]: 25.1 µM | GI50 [37]: 29 µM | TGI [37]: > 100 µM | GI50 [38]: 12 µM | TGI [38]: 31.6 µM | GI50 [39]: > 100 µM | TGI [39]: > 100 µM | GI50 [40]: 3.58 µM | TGI [40]: 37.8 µM | GI50 [41]: 18.4 µM | TGI [41]: 42.3 µM | GI50 [42]: 10.4 µM | TGI [42]: 22.1 µM | GI50 [43]: 28.5 µM | TGI [43]: 97.9 µM | GI50 [44]: 11.6 µM | TGI [44]: 29.5 µM | GI50 [45]: 17.6 µM | TGI [45]: 32.4 µM | GI50 [46]: 15 µM | TGI [46]: 29.8 µM | GI50 [47]: 2.56 µM | TGI [47]: 13.4 µM | GI50 [48]: 1.9 µM | TGI [48]: 9.32 µM | GI50 [49]: 17.2 µM | TGI [49]: 49.1 µM | GI50 [50]: 17.4 µM | TGI [50]: 31.6 µM | GI50 [51]: 16.1 µM | TGI [51]: 30.7 µM | GI50 [52]: 15.3 µM | TGI [52]: 29.3 µM | GI50 [53]: 15.6 µM | TGI [53]: 29.4 µM | GI50 [54]: 12.1 µM | TGI [54]: 26.7 µM | GI50 [55]: > 100 µM | TGI [55]: > 100 µM | GI50 [56]: 6.58 µM | TGI [56]: 29.4 µM | GI50 [57]: 14.4 µM | TGI [57]: 28.4 µM
